From PubChem BioAssay AID1963447 (Molecular Pharmacology Branch, DTP, NCI, 2024)
pIC50: −log10 of the molar value. Where “and” joins values, the source holds several entries; their conditions need not be identical. Identical values can stand only once.

Test system: 885512-296-R-J2-PDC complex spheroid growth, % test/control
Experiment: Anticancer human tumor 885512-296-R-J2-PDC patient-derived breast carcinoma cell line growth inhibition [Asc]
Conditions: for viability, T/C: stronger effect = lower value
Description: Multicellular complex tumor spheroid response to apoptosis pathway targeting inhibitors Alrizomadlin, Pelcitoclax, and Dasminapant in combination with a variety of drugs and investigational agents in selected tumor cell lines
The MDM2 inhibitor alrizomadlin, the Bcl-2/Bcl-xL inhibitor pelcitoclax, and the IAPs inhibitor dasminapant were evaluated both individually and in combination with standard of care and investigational anticancer small molecules within a complex spheroid model of solid tumors. . Complex spheroids include a stromal component modeled by human endothelial cells (HUVEC) and fibroblasts modeled by human mesenchymal stem cells (MSCs). The concentration ranges selected for each drug and investigational agent were based upon clinically achievable concentrations if the clinical Cmax of the agent was known.
Compounds. The drugs and investigational agents: alrizomadlin (APG-115; NSC831270), pelcitoclax (APG-1252; NSC835773), dasminapant (APG-1387;NSC834197), TAK-243 (NSC785004), copanlisib (NSC809693), olaparib (NSC753686), talazoparib (NSC767125), cobimetinib (NSC 768068), eltanexor (KPT-8602, NSC 794443), abemaciclib (NSC 768073), sotorasib (NSC818433), adagrasib (NSC 831453), MRTX-1133 (NSC 836407), Iadademestat (ORY1001, NSC 806812), and RMC-4630 (NSC839698), were obtained from the NCI Developmental Therapeutics Program Chemical Repository. The FDA-approved anticancer drug set is available from the Developmental Therapeutics Program at https://dtp.cancer.gov/organization/dscb/obtaining/available plates.htm. […] The stock solutions were prepared in dimethyl sulfoxide (DMSO, Sigma-Aldrich, St. Louis, MO, cat. D2650) at 800-fold the tested concentration and stored at -70 degrees C prior to their use. All drugs and investigational agents were tested over a range starting from a high concentration at or near the clinical Cmax and decreasing in half-log increments. If the clinical Cmax for an agent had not been determined, the highest concentration tested was 10 microM.
The patient-derived cancer (PDC) cell lines include five colon adenocarcinomas: 186277-243-T-J2-PDC, 616215-338-R-J1-PDC, 439559-082-T-J2-PDC, 463943-066-T-J2-PDC, and 519858-162-T-J1-PDC; three pancreatic carcinomas: 323965-272-R-J2-PDC, 521955-158-R6-J3-PDC, and 521955-158-R2-J5-PDC; two uterine sarcomas: 327498-152-R-J2-PDC and 993429-296-R-J1-PDC; two rhabdomyosarcomas: 755483-174-R-J1-PDC and 772245-204-R-J1-PDC; two soft tissue sarcomas: 126254-015-R-J1-PDC and 494315-158-R-J1-PDC; two malignant fibrous histiocytomas: 317291-083-R-J1-PDC and 596521-263-R-J1-PDC; two breast carcinomas: 171881-019-R-J1-PDC and 885512-296-R-J2-PDC; and one ovarian carcinoma: 6556581-035-R-J-PDC were obtained from the NCI PDMR, (https://pdmr.cancer.gov). The established cell lines HSSY-2 synovial sarcoma (RRID:CVCL 8719), SYO-1 synovial sarcoma (RRID:CVCL_7146), MPNST malignant peripheral neural sheath tumor were obtained from the Sloan Kettering Institute. The following established cell lines were purchased from the American Type Culture Collection (ATCC, Manassas, VA), Sor the received from the NCI repository:, PANC-1 pancreatic carcinoma (CRL-1469, RRID:CVCL_0480), OVCAR-5 ovarian carcinoma (RRID:CVCL_1628), OVCAR-8 ovarian carcinoma (RRID:CVCL_1629), , MCF-7 breast carcinoma (CRL-12584, RRID:CVCL_0031), MDA-MB-231 breast carcinoma (CRL-12532, RRID:CVCL_0062), NCI-H1876 small cell lung carcinoma (CRL-5902, RRID:CVCL_1503), NCI-H510A small cell lung carcinoma (HTB-184, RRID:CVCL_1565), NCI-H1417 (CRL-5869, RRID:CVCL_1469), and NCI-H196 small cell lung carcinoma (CRL-5823, RRID:CVCL_1509). Dr. Peter Houghton (Greehey Children's Cancer Research Institute, University of Texas Health Science Center, San Antonio, TX) provided Rh-18 rhabdomyosarcoma (RRID:CVCL_1659). Pooled donor human umbilical vein endothelial cells (HUVEC, Lonza, cat. CC-2519) and human mesenchymal stem cells (hMSC, Lonza, cat. PT-2501) were purchased from Lonza (Walkersville, MD).
Cell Culture. […]
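Also: spheroids exposed to compounds for seven days.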
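For viability, T/C in this document: 100% = DMSO vehicle control wells.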

Question: What does the source list for `CCN1CCN(Cc2ccc(Nc3ncc(F)c(-c4cc(F)c5nc(C)n(C(C)C)c5c4)n3)nc2)CC1` + CCN1C(C(=O)NC23CCC(C(=O)O)(CC2)CC3)C(c2cccc(Cl)c2F)C2(C(=O)Nc3cc(Cl)ccc32)C12CCCCC2?
Answer: pIC50 (curve of first compound, second compound 0.03 µM): < 6.00; pIC50 (curve of first compound, second compound 0.0949 µM): < 6.00; pIC50 (curve of first compound, second compound 0.3 µM): < 6.00; pIC50 (curve of first compound, second compound 0.949 µM): < 6.00; pIC50 (curve of first compound, second compound 3 µM): > 8.50; viability, T/C (second compound 0.03 µM, first compound 0.00316 µM): 98.5%; viability, T/C (second compound 0.03 µM, first compound 0.01 µM): 101%; viability, T/C (second compound 0.03 µM, first compound 0.0316 µM): 81.3%; viability, T/C (second compound 0.03 µM, first compound 0.1 µM): 76.4%; viability, T/C (second compound 0.03 µM, first compound 0.316 µM): 79.1%; viability, T/C (second compound 0.03 µM, first compound 1 µM): 62%; viability, T/C (second compound 0.0949 µM, first compound 0.00316 µM): 96.1%; viability, T/C (second compound 0.0949 µM, first compound 0.01 µM): 91.8%; viability, T/C (second compound 0.0949 µM, first compound 0.0316 µM): 80.5%; viability, T/C (second compound 0.0949 µM, first compound 0.1 µM): 64.1%; viability, T/C (second compound 0.0949 µM, first compound 0.316 µM): 80.8%; viability, T/C (second compound 0.0949 µM, first compound 1 µM): 59.9%; viability, T/C (second compound 0.3 µM, first compound 0.00316 µM): 74.2%; viability, T/C (second compound 0.3 µM, first compound 0.01 µM): 90.3%; viability, T/C (second compound 0.3 µM, first compound 0.0316 µM): 75.2%; viability, T/C (second compound 0.3 µM, first compound 0.1 µM): 69%; viability, T/C (second compound 0.3 µM, first compound 0.316 µM): 66%; viability, T/C (second compound 0.3 µM, first compound 1 µM): 56.3%; viability, T/C (second compound 0.949 µM, first compound 0.00316 µM): 69.7%; viability, T/C (second compound 0.949 µM, first compound 0.01 µM): 58.7%; viability, T/C (second compound 0.949 µM, first compound 0.0316 µM): 60.3%; viability, T/C (second compound 0.949 µM, first compound 0.1 µM): 50.5%; viability, T/C (second compound 0.949 µM, first compound 0.316 µM): 50.4%; viability, T/C (second compound 0.949 µM, first compound 1 µM): 54.9%; viability, T/C (second compound 3 µM, first compound 0.00316 µM): 41.1%; viability, T/C (second compound 3 µM, first compound 0.01 µM): 35.3%; viability, T/C (second compound 3 µM, first compound 0.0316 µM): 40.8%; viability, T/C (second compound 3 µM, first compound 0.1 µM): 38.7%; viability, T/C (second compound 3 µM, first compound 0.316 µM): 37.3%; viability, T/C (second compound 3 µM, first compound 1 µM): 39.4%

Question: What does the source list for `C#Cc1c(F)ccc2cc(O)cc(-c3ncc4c(N5CC6CCC(C5)N6)nc(OCC56CCCN5CC(F)C6)nc4c3F)c12` (configuration not stated) + CNC(C)C(=O)NC1CN(S(=O)(=O)c2cccc(S(=O)(=O)N3CCC4CCC(C(=O)NC(c5ccccc5)c5ccccc5)N4C(=O)C(NC(=O)C(C)NC)C3)c2)CCC2CCC(C(=O)NC(c3ccccc3)c3ccccc3)N2C1=O?
Answer: pIC50 (curve of first compound, second compound 0.01 µM): < 5.00; pIC50 (curve of first compound, second compound 0.0316 µM): < 5.00; pIC50 (curve of first compound, second compound 0.1 µM): < 5.00; pIC50 (curve of first compound, second compound 0.316 µM): < 5.00; pIC50 (curve of first compound, second compound 1 µM): < 5.00; viability, T/C (second compound 0.01 µM, first compound 0.0316 µM): 94.5%; viability, T/C (second compound 0.01 µM, first compound 0.1 µM): 111%; viability, T/C (second compound 0.01 µM, first compound 0.316 µM): 83.5%; viability, T/C (second compound 0.01 µM, first compound 1 µM): 69.7%; viability, T/C (second compound 0.01 µM, first compound 3.16 µM): 89.9%; viability, T/C (second compound 0.01 µM, first compound 10 µM): 94.5%; viability, T/C (second compound 0.0316 µM, first compound 0.0316 µM): 102%; viability, T/C (second compound 0.0316 µM, first compound 0.1 µM): 104%; viability, T/C (second compound 0.0316 µM, first compound 0.316 µM): 96.6%; viability, T/C (second compound 0.0316 µM, first compound 1 µM): 110%; viability, T/C (second compound 0.0316 µM, first compound 3.16 µM): 108%; viability, T/C (second compound 0.0316 µM, first compound 10 µM): 91.5%; viability, T/C (second compound 0.1 µM, first compound 0.0316 µM): 102%; viability, T/C (second compound 0.1 µM, first compound 0.1 µM): 97%; viability, T/C (second compound 0.1 µM, first compound 0.316 µM): 109%; viability, T/C (second compound 0.1 µM, first compound 1 µM): 99.4%; viability, T/C (second compound 0.1 µM, first compound 3.16 µM): 108%; viability, T/C (second compound 0.1 µM, first compound 10 µM): 86.9%; viability, T/C (second compound 0.316 µM, first compound 0.0316 µM): 112%; viability, T/C (second compound 0.316 µM, first compound 0.1 µM): 109%; viability, T/C (second compound 0.316 µM, first compound 0.316 µM): 104%; viability, T/C (second compound 0.316 µM, first compound 1 µM): 112%; viability, T/C (second compound 0.316 µM, first compound 3.16 µM): 107%; viability, T/C (second compound 0.316 µM, first compound 10 µM): 86.7%; viability, T/C (second compound 1 µM, first compound 0.0316 µM): 107%; viability, T/C (second compound 1 µM, first compound 0.1 µM): 108%; viability, T/C (second compound 1 µM, first compound 0.316 µM): 116%; viability, T/C (second compound 1 µM, first compound 1 µM): 105%; viability, T/C (second compound 1 µM, first compound 3.16 µM): 105%; viability, T/C (second compound 1 µM, first compound 10 µM): 94.6%

Question: What does the source list for `NC1CCC(NC2CC2c2ccccc2)CC1` (configuration not stated)?
Answer: viability, T/C (compound 0.000316 µM): 128% and 119% and 118%; viability, T/C (compound 0.001 µM): 129% and 116% and 126%; viability, T/C (compound 0.00316 µM): 118% and 117% and 122%; viability, T/C (compound 0.01 µM): 127% and 125% and 122%; viability, T/C (compound 0.0316 µM): 130% and 120% and 127%; viability, T/C (compound 0.1 µM): 122% and 110% and 125%; pIC50 (curve of compound): < 7.00
